Among the data in US20250163104A1, “MACROCYCLIC IMMUNOMODULATORS” (priority 2021, published 2025) are IC50 values, retold here.

The target in this test is T1, human PD-1 / PD-L1-Ig binding on Jurkat cell line over-expressing human PD-1 (Jurkat-PD-1) (Homo sapiens, UniProt Q15116).
T1 construct: expressed in transfected cells; host or cells: Jurkat
The test is described as follows: Jurkat-PD-1 Cell Binding High-Content Screening Assay (CBA). The conditions noted are these: PE-labeled PD-L1-Ig 20 nM final. Format: cell-based. Put shortly:
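Jurkat cells over-expressing human PD-1, in DMEM/10% FCS, pre-incubated with compound 2 h at 37° C. PE-labeled human PD-L1-Ig (20 nM final) added for 1 h; cells fixed in paraformaldehyde with Hoechst 33342 nuclear stain, washed, and bound fluorescence quantified by high-content imaging.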

[1] abbreviates: Jurkat-PD-1 cells, read-out: Jurkat HPD1_PDL1 IC50.

Structures are written as SMILES. Where two headings read alike, the source gives them in different places. Where a SMILES comes first, the peptide text is derived from it. Bridges are numbered along the chain shown (N, C = ends). [ ]: non-standard residue; d: D form. The star is where a group is joined. ξ: configuration not given here. Phe(4-COOH) = N[C@@H](Cc1ccc(C(=O)O)cc1)C(=O)O; Bip = N[C@@H](Cc1ccc(-c2ccccc2)cc1)C(=O)O; Phe(4-NH2) = Nc1ccc(C[C@H](N)C(=O)O)cc1; Phe(3-Me) = Cc1cccc(C[C@H](N)C(=O)O)c1; 4Pal = N[C@@H](Cc1ccncc1)C(=O)O; Cha = N[C@@H](CC1CCCCC1)C(=O)O; Cit = NC(=O)NCCC[C@H](N)C(=O)O; Carboxymethyl = O=C(O)C*; Nle = CCCC[C@H](N)C(=O)O; Orn = NCCC[C@H](N)C(=O)O; Dab = NCC[C@H](N)C(=O)O; Dap = NC[C@H](N)C(=O)O; ξOrn = NCCCC(N)C(=O)O

T1 sequence (Q15116 25-288): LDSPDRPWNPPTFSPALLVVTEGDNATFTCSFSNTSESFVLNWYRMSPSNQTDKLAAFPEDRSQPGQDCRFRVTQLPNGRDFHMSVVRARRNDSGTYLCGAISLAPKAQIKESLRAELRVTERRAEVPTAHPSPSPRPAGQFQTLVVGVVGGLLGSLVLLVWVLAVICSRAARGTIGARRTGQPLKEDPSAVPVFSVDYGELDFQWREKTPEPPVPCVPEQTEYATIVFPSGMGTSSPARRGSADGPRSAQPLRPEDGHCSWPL

In general, IC50 refers to the concentration that gives 50% inhibition. Consider `CCC(C)[C@@H]1NC(=O)[C@H](Cc2ccc(-c3ccccc3)cc2)NC(=O)[C@H](C(C)C)NC(=O)[C@H](Cc2cccc(C)c2)NC(=O)[C@H](CC(=O)O)NC(=O)[C@H](Cc2ccc(OCC(=O)O)cc2)NC(=O)[C@H](CN)NC(=O)CSC[C@@H](C(=O)N[C@@H](C)C(N)=O)NC(=O)[C@H](CO)NC(=O)[C@H](C(C)C)NC(=O)[C@H](CC2CCCCC2)NC(=O)[C@H](CCN)NC(=O)[C@@H](CC(C)C)NC(=O)[C@H](CCCN)NC1=O` (stereo partly drawn) [Compound 2533], for which the IC50 under setting [1] worked out at 43.7 nM. Same read-out and setting: to `CCCC[C@@H]1NC(=O)[C@H](CCN)NC(=O)[C@@H](CC(C)C)NC(=O)[C@H](CCCN)NC(=O)[C@H](C(C)C)NC(=O)[C@H](Cc2ccc(-c3ccccc3)cc2)NC(=O)[C@H](C(C)C)NC(=O)[C@H](Cc2cccc(C)c2)NC(=O)[C@H](CC(=O)O)NC(=O)[C@H](Cc2ccc(C(=O)O)cc2)NC(=O)[C@H](Cc2ccncc2)NC(=O)CSC[C@@H](C(=O)N[C@@H](C)C(N)=O)NC(=O)[C@H]([C@@H](C)O)NC(=O)[C@H](C(C)C)NC1=O` [Compound 1193] ({CH2CO}-[4Pal][Phe(4-COOH)]D[Phe(3-Me)]V[Bip]V[Orn][dL][Dab][Nle]VTCA-NH2; thioether N-14) belongs 7.7 nM. The same measure, in the same setting: the result for `CCNC(=O)[C@H](CCN)NC(=O)[C@@H]1CSCC(=O)N[C@@H](CN)C(=O)N[C@@H](Cc2ccc(OCC(=O)O)cc2)C(=O)N[C@@H](CC(=O)O)C(=O)N[C@@H](Cc2cccc(C)c2)C(=O)N[C@@H](C(C)C)C(=O)N[C@@H](Cc2ccc(-c3ccccc3)cc2)C(=O)N[C@@H](CCCNC(N)=O)C(=O)N[C@@H](CCCN)C(=O)N[C@H](CC(C)C)C(=O)N[C@@H](CCN)C(=O)N[C@@H](CC2CCCCC2)C(=O)N[C@@H](C(C)C)C(=O)N[C@@H]([C@@H](C)O)C(=O)N1` [Compound 2009] ({CH2CO}-[Dap]Y(Carboxymethyl)D[Phe(3-Me)]V[Bip][Cit][Orn][dL][Dab][Cha]VTC[Dab]-NHEt; thioether N-14) reads 5.8 nM. Still for that read-out and setting: the result for `CC(C)C[C@@H]1NC(=O)[C@H](Cc2c[nH]c3ccccc23)NC(=O)[C@H](CC(=O)O)NC(=O)[C@H](Cc2ccc(O)cc2)NC(=O)[C@H](Cc2ccccc2)NC(=O)CSC[C@@H](C(=O)NCC(N)=O)NC(=O)[C@H]([C@@H](C)O)NC(=O)[C@H](C(C)C)NC(=O)[C@H](CC(C)C)NC(=O)[C@H](CC(N)=O)NC(=O)[C@@H](CC(C)C)NC(=O)[C@H](CCCN)NC(=O)[C@H](C(C)C)NC(=O)[C@H](Cc2ccc(-c3ccccc3)cc2)NC1=O` [Compound 1064] ({CH2CO}-FYDWL[Bip]V[Orn][dL]NLVTCG-NH2; thioether N-14) reads 51.3 nM; that for `CC(C)C[C@H]1NC(=O)C(CCCN)NC(=O)[C@H](CCCNC(N)=O)NC(=O)[C@H](Cc2ccc(-c3ccccc3)cc2)NC(=O)[C@H](C(C)C)NC(=O)[C@H](Cc2c[nH]c3ccccc23)NC(=O)[C@H](CC(=O)O)NC(=O)[C@H](Cc2ccc(C(=O)O)cc2)NC(=O)[C@H](CN)NC(=O)CSC[C@@H](C(=O)N[C@@H](C)C(N)=O)NC(=O)[C@H]([C@@H](C)O)NC(=O)[C@H](C(C)C)NC(=O)[C@H](CC2CCCCC2)NC(=O)[C@H](CCN)NC1=O` (stereo partly drawn) [Compound 1333] ({CH2CO}-[Dap][Phe(4-COOH)]DWV[Bip][Cit][ξOrn][dL][Dab][Cha]VTCA-NH2; thioether N-14), 6.9 nM. For the setting “Jurkat HPD1_PDL1 IC50, Jurkat-PD-1 cells”, `CC(C)C[C@H]1NC(=O)[C@H](CCCN)NC(=O)[C@H](CCCNC(N)=O)NC(=O)[C@H](Cc2ccc(-c3ccccc3)cc2)NC(=O)[C@H](C(C)C)NC(=O)[C@H](Cc2c[nH]c3ccccc23)NC(=O)[C@H](CC(=O)O)NC(=O)[C@H](Cc2ccc(C(=O)O)cc2)NC(=O)[C@H](Cc2ccc(OCC(=O)O)cc2)NC(=O)CSC[C@@H](C(=O)N[C@@H](C)C(N)=O)NC(=O)[C@H]([C@@H](C)O)NC(=O)[C@H](C(C)C)NC(=O)[C@H](CC2CCCCC2)NC(=O)[C@H](Cc2c[nH]cn2)NC1=O` [Compound 1602] yielded a half-inhibitory concentration (IC50) of 23.8 nM. Regarding `CC(C)C[C@@H]1NC(=O)[C@H](Cc2c[nH]c3ccccc23)NC(=O)[C@H](CC(=O)O)NC(=O)[C@H](Cc2ccc(O)cc2)NC(=O)[C@H](Cc2ccccc2)NC(=O)CSC[C@@H](C(=O)NCC(N)=O)NC(=O)[C@H]([C@@H](C)O)NC(=O)[C@H](C(C)C)NC(=O)[C@H](CC(C)C)NC(=O)[C@H](CCN)NC(=O)[C@@H](CC(C)C)NC(=O)[C@H](CCCN)NC(=O)[C@H](C(C)C)NC(=O)[C@H](Cc2ccc(-c3ccccc3)cc2)NC1=O` [Compound 1068] ({CH2CO}-FYDWL[Bip]V[Orn][dL][Dab]LVTCG-NH2; thioether N-14), the IC50 under setting [1] turned out to be 17.4 nM. The same measure, in the same setting: the result for `CC(C)C[C@H]1NC(=O)[C@H](CCCN)NC(=O)[C@H](CCC(=O)O)NC(=O)[C@H](Cc2ccc(-c3ccccc3)cc2)NC(=O)[C@H](C(C)C)NC(=O)[C@H](Cc2c[nH]c3ccccc23)NC(=O)[C@H](CC(=O)O)NC(=O)[C@H](Cc2ccc(N)cc2)NC(=O)[C@H](CC(N)=O)NC(=O)CSC[C@@H](C(=O)N[C@@H](C)C(N)=O)NC(=O)[C@H]([C@@H](C)O)NC(=O)[C@H](C(C)C)NC(=O)[C@H](CC2CCCCC2)NC(=O)[C@H](CCN)NC1=O` [Compound 2180] ({CH2CO}-N[Phe(4-NH2)]DWV[Bip]E[Orn][dL][Dab][Cha]VTCA-NH2; thioether N-14) reads 28.1 nM. Consider `Cc1cccc(C[C@@H]2NC(=O)[C@H](CC(=O)O)NC(=O)[C@H](Cc3ccc(OCC(=O)O)cc3)NC(=O)[C@H]([C@@H](C)O)NC(=O)CSC[C@@H](C(N)=O)NC(=O)[C@H](CC(N)=O)NC(=O)[C@H](C(C)C)NC(=O)[C@H](CC3CCCCC3)NC(=O)[C@H](CCN)NC(=O)[C@@H](CC(C)C)NC(=O)[C@H](CCCN)NC(=O)[C@H](Cc3ccc(OCC(=O)O)cc3)NC(=O)[C@H](Cc3ccc(-c4ccccc4)cc3)NC(=O)[C@H](Cc3ccc(OCC(=O)O)cc3)NC2=O)c1` [Compound 1797] ({CH2CO}-TY(Carboxymethyl)D[Phe(3-Me)]Y(Carboxymethyl)[Bip]Y(Carboxymethyl)[Orn][dL][Dab][Cha]VNC-NH2; thioether N-14), for which the IC50 under setting [1] was 23.3 nM.

As to `CCC[C@@H]1NC(=O)[C@H](Cc2c[nH]c3ccccc23)NC(=O)[C@H](CC(=O)O)NC(=O)[C@H](Cc2ccc(OCC(=O)O)cc2)NC(=O)[C@H](CN)NC(=O)CSC[C@@H](C(=O)N[C@@H](C)C(N)=O)NC(=O)[C@H]([C@@H](C)O)NC(=O)[C@H](C(C)C)NC(=O)[C@H](CC2CCCCC2)NC(=O)[C@H](CCN)NC(=O)[C@@H](CC(C)C)NC(=O)[C@H](CCCN)NC(=O)[C@H](C(C)C)NC(=O)[C@H](Cc2ccc(-c3ccccc3)cc2)NC1=O` [Compound 1735], the concentration for half-maximal inhibition (IC50) under setting [1] amounted to 13.6 nM. Still for that read-out and setting: the result for `Cc1cccc(C[C@@H]2NC(=O)[C@H](CC(=O)O)NC(=O)[C@H](Cc3ccc(O)cc3)NC(=O)[C@H](CC(N)=O)NC(=O)CSC[C@@H](C(=O)N[C@@H](C)C(N)=O)NC(=O)[C@H]([C@@H](C)O)NC(=O)[C@H](C(C)C)NC(=O)[C@H](CC3CCCCC3)NC(=O)[C@H](Cc3cnc[nH]3)NC(=O)[C@@H](CC(C)C)NC(=O)[C@H](CCCN)NC(=O)[C@H](C(C)C)NC(=O)[C@H](Cc3ccc(-c4ccccc4)cc3)NC(=O)[C@H](C(C)C)NC2=O)c1` [Compound 1586] ({CH2CO}-NYD[Phe(3-Me)]V[Bip]V[Orn][dL]H[Cha]VTCA-NH2; thioether N-14) reads 17.7 nM; that for `CC(C)C[C@@H]1NC(=O)[C@H](Cc2c[nH]c3ccccc23)NC(=O)[C@H](CC(=O)O)NC(=O)[C@H](Cc2ccc(O)cc2)NC(=O)[C@H](Cc2ccccc2)NC(=O)CSC[C@@H](C(=O)NCC(N)=O)NC(=O)[C@H](CO)NC(=O)[C@H](C(C)C)NC(=O)[C@H](CC2CCCCC2)NC(=O)[C@H](CC(N)=O)NC(=O)[C@@H](CC(C)C)NC(=O)[C@H](CN)NC(=O)[C@H](C(C)C)NC(=O)[C@H](Cc2ccc(-c3ccccc3)cc2)NC1=O` [Compound 1392] ({CH2CO}-FYDWL[Bip]V[Dap][dL]N[Cha]VSCG-NH2; thioether N-14), 78.1 nM; that for `CC(C)C[C@H]1NC(=O)[C@H](CCCN)NC(=O)[C@H](CCCNC(N)=O)NC(=O)[C@H](Cc2ccc(-c3ccccc3)cc2)NC(=O)[C@H](C(C)C)NC(=O)[C@H](Cc2c[nH]c3ccccc23)NC(=O)[C@H](CC(=O)O)NC(=O)[C@H](Cc2csc3ccccc23)NC(=O)[C@H](CN)NC(=O)CSC[C@@H](C(=O)N[C@@H](C)C(N)=O)NC(=O)[C@H]([C@@H](C)O)NC(=O)[C@H](C(C)C)NC(=O)[C@H](CC2CCCCC2)NC(=O)[C@H](CCN)NC1=O` [Compound 2114], 68.9 nM. As to `CC(C)C[C@H]1NC(=O)[C@H](CN)NC(=O)[C@H](C(C)C)NC(=O)[C@H](Cc2ccc(-c3ccccc3)cc2)NC(=O)[C@H](C(C)C)NC(=O)[C@H](Cc2c[nH]c3ccccc23)NC(=O)[C@H](CC(=O)O)NC(=O)[C@H](Cc2ccncc2)NC(=O)[C@H](CN)NC(=O)CSC[C@@H](C(=O)NCC(N)=O)NC(=O)[C@H](CO)NC(=O)[C@H](C(C)C)NC(=O)[C@H](CC2CCCCC2)NC(=O)[C@H](CC(N)=O)NC1=O` [Compound 1651] ({CH2CO}-[Dap][4Pal]DWV[Bip]V[Dap][dL]N[Cha]VSCG-NH2; thioether N-14), the IC50 under setting [1] is 17.4 nM. In the case of `CC(C)C[C@@H]1NC(=O)[C@H](Cc2c[nH]c3ccccc23)NC(=O)[C@H](CC(=O)O)NC(=O)[C@H](Cc2ccc(C(=O)O)cc2)NC(=O)[C@H](Cc2ccc(OCC(=O)O)cc2)NC(=O)CSC[C@@H](C(=O)NCC(N)=O)NC(=O)[C@H](CO)NC(=O)[C@H](C(C)C)NC(=O)[C@H](CC(C)C)NC(=O)[C@H](CC(N)=O)NC(=O)[C@@H](CC(C)C)NC(=O)[C@H](CCCN)NC(=O)[C@H](C(C)C)NC(=O)[C@H](Cc2ccc(-c3ccccc3)cc2)NC1=O` [Compound 1283] ({CH2CO}-Y(Carboxymethyl)[Phe(4-COOH)]DWL[Bip]V[Orn][dL]NLVSCG-NH2; thioether N-14), the IC50 under setting [1] amounted to 24.5 nM.
